The source of these data is patent publication US11013715B2, “Nanoemulsion hydrophobic substances” (Vertosa, Inc., priority 2018, dated 2021).

Read-outs that look alike come from different tables or passages of the source.

For series [1] the following is noted: cited from earlier work.
Series [2] is described as follows: Emulsion droplet average size by Dynamic Light Scattering. Format: physicochemical. To be noted: named Span as co-surfactant; 1 g cannabinoid, 0.625 g olive oil, 3.75 g Tween 80, Span:Tween 80 1:6; 45 mL; 80% amplitude sonication until plateau; DLS. As to the method: Droplet size change was monitored by DLS time wise.
Sometimes, measuring concentrated nano-emulsion (>10 mg/g) by Dynamic Light Scattering could have misleading data. Since at higher concentration, the emulsion droplets pack close to each other and may generate unreal scattering pattern. […] While the nanosized droplets are a preferred embodiment of the instant application, larger sized droplets are contemplated as well. Sometimes, larger size emulsion is generated by design to achieve desirable effects.
As is generally known in the art, droplet sizes and their distribution may affect the human feeling on flavor. On one side, nano-size can amplify or even alter the taste, something tastes plain at bulk may taste bitter or sour in nano-scale. On the other side, taste buds on tongue tend to have different time reactions to different sizes of particles. The smaller droplets can quickly absorb at the gap of the tasting buds, thus blocking the touching/feeling from bigger droplets. The droplet size can be well controlled by how much energy is put into the liquid system, which can be controlled either by amplitude % of the sonicator or by how long the liquid is being sonicated at certain amplitude %.
The sonicator continuously calibrates itself to ensure consistent output. A commercially available sonicator may be used to make the compositions disclosed herein. The wattage of such a sonicator may vary from 250 W to about 800 W, and more preferably between about 350 W to about 650 W, and most preferably between 450 W to about 550 W. The output energy depends on the viscosity of the emulsion and also temperature. […] Processing amplitude are adjustable, and it is within a linear relation with intensity. And process time can also be adjustable, which will determine total input energy under certain intensity. Since each formula may need different amount of energy to get into nanosize, we usually monitor droplet size change with Dynamic Light Scattering over production time to determine when to stop the sonication.
1 g of cannabis and 5 g of the Formula 1 are added to a 100 ml beaker, and mechanically stirred under controlled heat (<60° C.), until it is well mixed. The cannabis oil may be a full plant extract or a high pure distillate. Water is added to the mixture, the amount of water is determined by the final targeting concentration. The mixture is kept stirring until a homogenous milky coarse emulsion is formed.

[3] abbreviates: Table 1, HLB=20*Mh/M, scale 0 to 20.
Where [4] appears, read: Span surfactants, Example 9 table.

In the case of Tween 81, in series [1] (setting [3]), the HLB is listed as 10.
As to Span 85, the “Final Emulsion droplet average size (nm)” value in series [2] worked out at 876 nm.
In the case of Span 83, the “Final Emulsion droplet average size (nm)” value in series [2] is 560 nm.
On to Span 60, for which the “Final Emulsion droplet average size (nm)” value in series [2] came out at 316 nm. Also, the HLB in series [1] (setting [4]) is 4.7.
As for Span 80, the “Final Emulsion droplet average size (nm)” value in series [2] is on record as 387 nm. The HLB in series [1] (setting [4]) was 4.3.
Regarding Polyglyceryl-6 Stearate, in series [1] (setting [3]), the HLB is recorded as 9.
For polyglyceryl-6 oleate, in series [1] (setting [3]), the HLB is 9.
For Span 40, the “Final Emulsion droplet average size (nm)” value in series [2] is 245 nm. Also, the HLB in series [1] (setting [4]) was 6.7.
Regarding Span 120, the “Final Emulsion droplet average size (nm)” value in series [2] was 302 nm. For the same substance, the HLB in series [1] (setting [4]) is 4.7.
For the substance Span 20, the “Final Emulsion droplet average size (nm)” value in series [2] worked out at 91 nm.
